What was measured:
[1] = tested on: E. cloacae 144200 expressing Class C P99 AmpC; assay: broth microdilution MIC, E. cloacae P99; assay type: cell-based; details: Fixed CAZ (ceftazidime) 4 μg/mL
From the text: (§1) To determine the ability of test compounds to potentiate the inhibition of the growth of bacterial strains that produce beta-lactamase enzymes, classic cell based broth microdilution MIC assays were employed. Six bacteria strains producing beta-lactamase enzymes were used: E. coli expressing the Class A Extended Spectrum Beta-Lactamase (ESBL) CTX-M-15, E. cloacae expressing the Class C P99, K. pneumoniae expressing the Class A carbapenemase KPC-3, P. aeruginosa expressing the Class B carbapenemase VIM-2, K pneumoniae expressing the class A carbapenemase KPC-2 and the class B carbapenemase VIM-4, and S. aureus producing the Class A penicillinase PC-1. The assay was conducted in Cation Adjusted Mueller Hinton Broth (CAMHB, BD #212322, BD Diagnostic Systems, Sparks, Md.). Bacteria strains were grown for 3-5 hours in CAMBH broth. Test compounds were added to a microtiter plate in 2-fold serial dilutions in CAMHB in a final concentration range of 32 μg/mL to 0.25 μg/ml. An overlay of CAMHB containing a Beta-lactam was added to the compounds at a final static concentration of 4 μg/ml. […] In addition to the titration of test compounds the MICs of a panel of control beta-lactams is also tested to ensure the strains are behaving consistently from test to test. Once the test compound and antibiotics are added the plates can be inoculated according to CLSI broth microdilution method. After inoculation the plates are incubated for 16-20 hours at 37° C., then the Minimal Inhibitory Concentration (MIC) of the test compound is determined visually.
(§2) Using the methodology described above, examples of the current invention were evaluated for their ability to inhibit the growth of β-lactamase-producing bacteria in the presence of a β-lactam antibiotic.
(§3) Representative results are shown in Table 4 where A represents an MIC of the fixed β-lactam antibiotic in the presence of >32 µg/mL of a β-lactamase inhibitor of exemplary compounds, B represents the MIC in the presence of between 8 and 32 µg/mL of a β-lactamase inhibitor of exemplary compounds, and C represents the MIC in the presence of ≤4 µg/mL of a β-lactamase inhibitor of exemplary compounds. NT=Not Tested.

SHV-5 β-lactamase = biological target: T1, SHV-5 β-lactamase (Klebsiella pneumoniae, UniProt P0A3M1); assay: β-lactamase enzyme inhibition, SHV-5; assay type: biochemical
T1 construct: made in house; host or cells: E. coli BL21(DE3)
T1 sequence (P0A3M1 22-286): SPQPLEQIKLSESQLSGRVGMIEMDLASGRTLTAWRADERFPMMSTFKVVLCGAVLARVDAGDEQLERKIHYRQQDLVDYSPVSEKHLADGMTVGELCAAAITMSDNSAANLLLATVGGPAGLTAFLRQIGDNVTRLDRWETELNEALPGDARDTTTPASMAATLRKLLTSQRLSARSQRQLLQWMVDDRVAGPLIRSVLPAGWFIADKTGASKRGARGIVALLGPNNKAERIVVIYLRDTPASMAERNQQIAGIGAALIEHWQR
Protocol: (§4) For SHV-5, Kpc-2, p99AmpC and OXA-1 β-lactamases, E. coli BL21(DE3) bacterial cells carrying expression plasmids (expressed as native untagged proteins) for the individual β-lactamases were grown in 1 L of Superbroth (Teknova Inc. Hollister, Calif.) supplemented with 100 μg/ml kanamycin selection and 1×5052 (0.5% glycerol, 0.05% glucose and 0.2% α-lactose) at 35° C. for 18-20 hours. Cells were harvested by centrifugation (4,000×g, 4° C., 20 min), resuspended in 50 ml of 10 mM HEPES pH 7.5 ( 1/20 of the initial volume). The cells were lysed by sonication (5 pulses of 45 seconds) at 45 W on ice. The lysates were clarified by centrifugation at 10,000×g for 40 minutes at 4° C. Samples were diluted 5-fold in 50 mM sodium acetate pH 5.0, stored overnight at 4° C., after which they were centrifuged at 10,000×g for 30 minutes to clarify, and filtered through 0.45 μm filters. The samples were loaded onto a 5 ml Capto S sepharose cation exchange column (GE Healthcare) pre-equilibrated with 50 mM sodium acetate pH 5.0. The column was washed with 5 column volumes of 50 mM sodium acetate pH 5.0 to wash out unbound protein and a linear gradient of NaCl (0 to 500 mM) was used to elute the protein (over 16 CV) from the column. Fractions were assayed for […] activity using Centa (Calbiochem, Gibbstown, N.J.) or Nitrocefin (EMD Millipore chemicals, Darmstadt, Germany) as a reporter β-lactamase substrate for activity in the isolated fractions. Active fractions were pooled, concentrated and further purified by gel filtration chromatography on a Superdex 75 prep grade gel filtration column (GE Healthcare, Piscataway, N.J.) pre-equilibrated in 50 mM Hepes pH 7.5, 150 mM NaCl. Active fractions were pooled, concentrated, and quantitated by BCA protein determination (Thermo Scientific, Rockford, Ill.), dialyzed into PBS and frozen at −80° C. in 20% glycerol until use.
(§5) An equal volume of diluted enzyme stock was added, and the plates were incubated at 37° C. for 15 min. Nitrocefin was used as substrate for p99 AmpC, VIM-2 and OXA-1 and dispensed into each well at a final concentration of 100 μM. Absorbance at 486 nm was immediately monitored for 10 min using a Biotek Powerwave XS2 microplate spectrophotometer using the GEN5 software package (Biotek Instruments, Winooski Vt.). In an analogous fashion, imipenem was used as substrate for KPC-2 and Cefotaxime was used for SHV-5, while changes in absorbance upon hydrolysis of the β-lactam ring were monitored at 300 nm and 260 nm respectively in UV-transparent 96-well microtiter assay plates. Maximum rates of hydrolysis were compared to those in control wells (without inhibitors), and percentages of enzyme inhibition were calculated for each concentration of inhibitor. The concentration of inhibitor needed to reduce the initial rate of hydrolysis of substrate by 50% (IC50) was calculated as the residual activity of β-lactamase at 486 nm using GraFit version 7 kinetics software package (Erithacus Software, Surrey, UK).
(§6) Using the methodology described above, examples of the current invention were evaluated for their ability to inhibit β-lactamase enzymes from all four Ambler classifications (A through D). […] NT=Not tested.

[2] = tested on: E. coli ESBL4 expressing CTX-M-15; assay: broth microdilution MIC, E. coli CTX-M-15; assay type: cell-based; details: Fixed CAZ (ceftazidime) 4 μg/mL
From the text: as §1, §2, §3

[3] = biological target: T2, VIM-2 metallo β-lactamase (Pseudomonas aeruginosa, UniProt Q9K2N0); assay: β-lactamase enzyme inhibition, VIM-2; assay type: biochemical; details: Nitrocefin 100 μM, 486 nm; 15 min at 37° C. preincubation; read-out: IC50 VIM-2 (Class B)
T2 construct: made in house; host or cells: E. coli BL21(DE3)
Protocol: For VIM-2 metallo β-lactamase, the procedure was identical with the following exceptions, first the protein was not pH adjusted to pH 5 with 50 mM sodium acetate. Second, the chromatography step was changed to a 5 ml Q sepharose anion exchange column pre-equilibrated with 50 mM Hepes pH 7.5, and elution of the protein was achieved by a linear gradient of NaCl (0-600 mM). Finally, the VIM-2 purification required a second run (3rd step) on the Q sepharose anion exchange column to achieve acceptable purity (>90%).
as §5, §6

p99 AmpC β-lactamase = biological target: T3, p99 AmpC β-lactamase (Enterobacter cloacae, UniProt P05364); assay: β-lactamase enzyme inhibition, p99 AmpC; assay type: biochemical
T3 construct: made in house; host or cells: E. coli BL21(DE3)
T3 sequence (P05364 21-381): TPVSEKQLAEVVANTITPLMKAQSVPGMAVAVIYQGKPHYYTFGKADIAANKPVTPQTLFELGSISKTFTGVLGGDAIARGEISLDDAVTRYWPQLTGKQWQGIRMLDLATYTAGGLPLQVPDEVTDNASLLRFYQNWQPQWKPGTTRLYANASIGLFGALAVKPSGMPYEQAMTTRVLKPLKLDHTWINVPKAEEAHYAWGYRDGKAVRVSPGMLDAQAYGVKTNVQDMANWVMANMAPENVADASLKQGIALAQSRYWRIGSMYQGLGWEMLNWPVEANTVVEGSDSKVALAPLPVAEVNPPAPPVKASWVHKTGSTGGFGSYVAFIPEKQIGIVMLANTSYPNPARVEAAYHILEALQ
Protocol: as §4, §5
Using the methodology described above, examples of the current invention were evaluated for their ability to inhibit β-lactamase enzymes from all four Ambler classifications (A through D).

[4] = tested on: K. pneumoniae A-1797 expressing KPC-2 and VIM-4; assay: broth microdilution MIC, K. pneumoniae KPC-2 and VIM-4; assay type: cell-based; details: Fixed Mero (meropenem) 4 μg/mL
From the text: as §1, §2, §3

KPC-2 β-lactamase = biological target: T4, KPC-2 β-lactamase (Klebsiella pneumoniae, UniProt Q9F663); assay: β-lactamase enzyme inhibition, KPC-2; assay type: biochemical; details: imipenem substrate, 300 nm; 15 min at 37° C. preincubation; read-out: IC50 KPC-2 (Class A)
T4 construct: made in house; host or cells: E. coli BL21(DE3)
T4 sequence (Q9F663 25-293, looked up): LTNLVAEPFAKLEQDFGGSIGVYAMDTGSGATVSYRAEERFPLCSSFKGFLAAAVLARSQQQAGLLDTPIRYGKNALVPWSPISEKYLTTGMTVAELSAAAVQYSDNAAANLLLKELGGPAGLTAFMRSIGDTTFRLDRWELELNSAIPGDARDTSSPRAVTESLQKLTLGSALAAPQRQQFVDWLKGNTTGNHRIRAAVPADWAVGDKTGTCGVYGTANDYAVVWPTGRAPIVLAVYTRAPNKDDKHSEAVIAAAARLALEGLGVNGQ
Protocol: as §4, §5, §6

[5] = tested on: K. pneumoniae 156319 expressing KPC-3; assay: broth microdilution MIC, K. pneumoniae KPC-3; assay type: cell-based; details: Fixed Mero (meropenem) 4 μg/mL
From the text: as §1, §2, §3

| SMILES | MIC of exemplary compounds in presence of fixed β-lactams, E. cl. 144200 p99 AmpC [1] | IC50 (SHV-5 β-lactamase) [µM] | MIC of exemplary compounds in presence of fixed β-lactams, E. coli ESBL4 CTX-M-15 [2] | IC50 [3] [µM] | IC50 (p99 AmpC β-lactamase) [µM] | MIC of exemplary compounds in presence of fixed β-lactams, K.P. A-1797 KPC-2 VIM-4 [4] | IC50 (KPC-2 β-lactamase) [µM] | MIC of exemplary compounds in presence of fixed β-lactams, K.P. 156319 KPC-3 [5] |
| --- | --- | --- | --- | --- | --- | --- | --- | --- |
| CN(C)S(=O)(=O)CCC(=O)N[C@H]1Cc2cccc(C(=O)O)c2OB1O [Example 55, (R)-3-(3-Dimethylsulfamoyl-propionylamino)-2-hydroxy-3,4-dihydro-2H-benzo[e][1,2]oxaborinine-8-carboxylic acid] | C (C represents the MIC in the presence of ≤4 g/mL of a β-lactamase inhibitor) | < 0.1 | C (C represents the MIC in the presence of ≤4 g/mL of a β-lactamase inhibitor) | 1 to 10 | < 0.1 | B (B represents the MIC in the presence of between 8 and 32 g/mL of a β-lactamase inhibitor) | < 0.1 | C (C represents the MIC in the presence of ≤4 g/mL of a β-lactamase inhibitor) |
| NS(=O)(=O)CCCC(=O)N[C@H]1Cc2cccc(C(=O)O)c2OB1O [Example 53, (R)-2-Hydroxy-3-(4-sulfamoyl-butyrylamino)-3,4-dihydro-2H-benzo[e][1,2]oxaborinine-8-carboxylic acid] | C (C represents the MIC in the presence of ≤4 g/mL of a β-lactamase inhibitor) | < 0.1 | C (C represents the MIC in the presence of ≤4 g/mL of a β-lactamase inhibitor) | 10 to 100 | < 0.1 | B (B represents the MIC in the presence of between 8 and 32 g/mL of a β-lactamase inhibitor) | < 0.1 | C (C represents the MIC in the presence of ≤4 g/mL of a β-lactamase inhibitor) |
| COC(=O)NCC(=O)N[C@H]1Cc2cccc(C(=O)O)c2OB1O [Example 56, (R)-2-Hydroxy-3-(2-methoxycarbonylamino-acetylamino)-3,4-dihydro-2H-benzo[e][1,2]oxaborinine-8-carboxylicacid] | C (C represents the MIC in the presence of ≤4 g/mL of a β-lactamase inhibitor) | < 0.1 | C (C represents the MIC in the presence of ≤4 g/mL of a β-lactamase inhibitor) | 1 to 10 | < 0.1 | B (B represents the MIC in the presence of between 8 and 32 g/mL of a β-lactamase inhibitor) | 0.1 to 1 | C (C represents the MIC in the presence of ≤4 g/mL of a β-lactamase inhibitor) |
| O=C(CNC(=O)c1ccccc1)N[C@H]1Cc2cccc(C(=O)O)c2OB1O [Example 60, (R)-3-(2-Benzoylamino-acetylamino)-2-hydroxy-3,4-dihydro-2H-benzo[e][1,2]oxaborinine-8-carboxylic acid] | C (C represents the MIC in the presence of ≤4 g/mL of a β-lactamase inhibitor) | < 0.1 | C (C represents the MIC in the presence of ≤4 g/mL of a β-lactamase inhibitor) | 10 to 100 | < 0.1 | B (B represents the MIC in the presence of between 8 and 32 g/mL of a β-lactamase inhibitor) | < 0.1 | B (B represents the MIC in the presence of between 8 and 32 g/mL of a β-lactamase inhibitor) |
